System: healthy male S.D. rats
Test: Feces production in rats over the 10-day period (Example 3)
Assay type: in vivo, rat
Details: Sennosides 3.35 mg/kg
Method: During this period, the body weights of the rats were weighed each day and recorded. Feces of each rat were studied three times during the period for any unusual observations. Specifically, the amounts of feces were weighed on Days 11, 15, 18, and 21. During observation, each rat was placed in a metabolic cage. Feces were collected every twenty-four hours. The number of collected feces pellets was counted, and the pellets' shapes and colors were evaluated. After weighing the moist feces, they were dried in an oven at 100° C. for twenty-four hours. The water content from the feces was calculated according to the following formula: Water content percentage=[(wet weight−dry weight)/wet weight]×100%. (I) The results are summarized in Table 2 below: The aforementioned STD05 and compounds were studied for the laxative activity. Healthy male S.D. rats (BioLASCO Taiwan Co. Ltd.) were divided into three groups (i.e., Groups 1-3) in this study. In Group I, 6 rats, as negative control, were given no treatment; 6 rats, as positive control, were given 3.35 mg/kg/day Sennosides (Through®, Chung Mei Pharmaceutical Co., Ltd; Active ingredient: Sennosides 20 mg, as sennoside A+B 12 mg, Lot. 012F 006); 6 rats were treated STD05 (8 mg/kg/day); 6 rats were treated with an extract fraction containing aloe-emodin, rhein, and emodin (“ARE”, 8 mg/kg/day); 6 rats were treated with Aloe-emodin (4 mg/kg/day); and 6 rats were treated with Rhein (4 mg/kg/day). In Group II, 6 rats, as negative control, were given no treatment; 6 rats, as positive control, were given 3.35 mg/kg/day Sennosides; 6 rats were treated STD05 (24 mg/kg/day); 6 rats were treated with an extract fraction containing ARE (24 mg/kg/day); 6 rats were treated with Chrysophanol (4 mg/kg/day); and 6 rats were treated with Emodin (4 mg/kg/day). In Group III, 6 rats, as negative control, were given no treatment; 6 rats were treated with Physcoin (4 mg/kg/day); and 6 rats were treated with a mixture of chrysophanol and physcion (8 mg/kg/day, “CP”). The experiments were carried out under controlled temperature, humidity, and lighting. Each rat was fed standard rat food and water ad libitum in housing that provided a 12-hour light/dark cycle. For statistical comparison, all of the rats were divided into six sets according to the body weights. The first part of the experiment studied the effect of the test substances on feces production. During the 10-day period, the body weights of the rats were weighed each day and recorded. The rat's feces was also studied three times in the manner described above during the 10-day period for any unusual observations. During the 10-day period, any rat that appeared dying was euthanized, dissected, and examined for any illness or injury. Any complications or illness were analyzed by H&E stains to determine the cause of death and to allow for dosage reconsiderations for future experiments. Summarized in Table 4 below are the effects of the compounds, mixtures, or extracts on the rat body weights. During the period, feces produced by the rats were studied days 1, 5, and 10 in the same manner described above. […] In the 10-day period, the rats administered with STD05 produced more feces (wet weight) that the rats in the control group by about 32%. In addition, the pellet counts for the rats administered with STD05 were greater than those for the control rats by about 20%. Furthermore, STD05 increased the water content in feces by about 18%. The same experiments were conducted on rats administered with physcion, aloe-emodin, chrysophanol, rhein, emodin, CP, and ARE.

[1] = Group I, Day 1, STD05 8 mg/kg, ARE 8 mg/kg, Aloe-emodin 4 mg/kg, Rhein 4 mg/kg
[2] = Group I, Day 5, STD05 8 mg/kg, ARE 8 mg/kg, Aloe-emodin 4 mg/kg, Rhein 4 mg/kg
[3] = Group I, Day 10, STD05 8 mg/kg, ARE 8 mg/kg, Aloe-emodin 4 mg/kg, Rhein 4 mg/kg
[4] = Group II, Day 1, STD05 24 mg/kg, ARE 24 mg/kg, Chrysophanol 4 mg/kg, Emodin 4 mg/kg
[5] = Group II, Day 5, STD05 24 mg/kg, ARE 24 mg/kg, Chrysophanol 4 mg/kg, Emodin 4 mg/kg
[6] = Group II, Day 10, STD05 24 mg/kg, ARE 24 mg/kg, Chrysophanol 4 mg/kg, Emodin 4 mg/kg

Sennosides
Pellet count [1]: 101
Water content [1]: 45.69%
Wet Weight [1]: 18.72 g
Pellet count [2]: 119
Water content [2]: 48.68%
Wet Weight [2]: 26.16 g
Pellet count [3]: 146
Water content [3]: 57.4%
Wet Weight [3]: 36.38 g
Pellet count [4]: 134
Water content [4]: 61.09%
Wet Weight [4]: 36.19 g
Pellet count [5]: 118
Water content [5]: 61.53%
Wet Weight [5]: 36.42 g
Pellet count [6]: 132
Water content [6]: 53.99%
Wet Weight [6]: 36.21 g

Source: patent publication US8466202B2, “Anthracenedione compounds” (Sunten Phytotech Co., Ltd., priority 2006, dated 2013)
